The source of these data is patent publication US10556926B2, “Synthetic artificial peptides with antimicrobial effect” (priority 2014, dated 2020).

Data set [1] deals with E. coli ML-35p. Put plainly: Kinetics of permeabilization of the inner bacteria membrane (ONPG). It counts as cell-based, Escherichia coli. On the procedure:
(§1) The ability of the antimicrobial peptides for the respective permeabilization of the outer and inner bacteria membrane was tested by way of example on E. coli ML-35p (made available by Dr. R. E. Lehrer, Center for Health Sciences, Los Angeles, Calif., USA). The peptides were incubated in serial dilution with E. coli ML-35p and the time-dependent release of cell-internal components was measured in a slightly modified protocol according to Ericsson et al. (2002). For this purpose, the bacteria were cultured in Luria-Bertani (LB) medium with 100 μg/ml ampicillin (Fluka, Taufkirchen, Germany) until reaching an optical density of 0.4 at 600 nm wavelength. Then, the cells were washed three times by centrifugation at 4000 g for 1 min and subsequent up-take in 10 mM HEPES buffer pH 7.2. Finally, the cells were diluted to an optical density of 0.3 at 600 nm wavelength. To measure the permeabilization of the outer membrane, nitrocefin (Merck, Darmstadt, Germany) was diluted in HEPES buffer to a concentration of 60 μg/ml. The antimicrobial peptides were diluted in HEPES buffer to an end concentration of 12 μM, 24 μM, 48 μM and 96 μM end concentration. In the next step, 50 μl of nitrocefin were admixed with 50 μl of antimicrobial peptide and 50 μl of bacteria suspension such that an end concentration of 20 μg/ml of nitrocefin, 4 μM to 32 μM of antimicrobial peptide and bacteria with an optical density of 0.1 to 600 nm were present. The samples were mixed and the absorption at 500 nm wavelength was measured directly over a period of at least 90 min at 37° C. with regular shaking in a FLUOstar omega Microplate Reader (BMG Labtech, Ortenberg, Germany). The investigation of the permeabilization of the inner membrane was carried out in the same way except that instead of the nitrocefin accordingly 0-nitrophenyl-beta-D-galactoside (ONPG, Sigma-Aldrich) in an end concentration of 100 μg/ml was used and the absorption change was determined at a wavelength of 420 nm. The control used was samples without antimicrobial peptide, the positive control used for the membrane permeabilization was polymyxin B (Sigma-Aldrich) in an end concentration of 5 μM. For the data evaluation, firstly the measurement values of the corresponding negative controls were deducted from the measurement values of the samples, and the difference was then divided by the corresponding measurement values of the permeabilization control. Then, a graphical evaluation was carried out, the calculated values being plotted against the peptide concentration and being fitted with the help of the Origin Pro 8.1 G Software (OriginLab) according to a sigmoidal model. As representative examples, FIGS. 4 and 5 show the graphical evaluation for the kinetic investigation of the permeabilization of the outer E. coli bacteria membrane for the peptides N4 (FIG. 4) and O1 (FIG. 5).
(§2) As comparison parameter between the peptides, the times were ascertained from this at which 50% of the final signal level was reached. For this purpose, the equation with the percentage membrane permeabilization y, the time x in minutes, the lower plateau A1, the upper plateau A2, the point of inflection Log X0 and the Hill incline p
(§3) [formula] was used. The calculation of the parameters A1, A2, Log X0 and p was performed by the program by reference to the compensating curve. Further resolution of equation 5.1 for the case y=50 then produced for x the desired time at which the half-maximum signal level was reached.

Data set [2] concerns E. coli ML-35p. Put plainly: Kinetics of permeabilization of the outer bacteria membrane (nitrocefin). It is filed as cell-based, Escherichia coli. The method, then: as §1, with “model.” for “model. As representative examples, FIGS. 4 and 5 show the graphical evaluation for the kinetic investigation of the permeabilization of the outer E. coli bacteria membrane for the peptides N4 (FIG. 4) and O1 (FIG. 5).”
as §2, §3

For data set [3], the system named is human histiocytic lymphoma cell line U937. Put plainly: Long-term growth inhibition, minimum toxic concentration (MTC). On the procedure:
The cytotoxic potential of the antimicrobial peptides was determined by way of example by reference to the human histiocytic lymphoma cell line U937 (DSMZ). The influence of the peptides on the permeability of the cell membrane and their longer-term growth-inhibiting effect was investigated. 15 ml of RPMI 1640 medium with 2 mM glutamine and 10% FCS (Biochrom, Berlin, Germany) were inoculated with 1·10^5 cells per ml and cultivated for three days at 37° in T75 cell culture bottles (TPP, Trasadingen, Switzerland) with constant gassing with 5% CO2 in a climatically controlled chamber. The medium was admixed with 10 U/ml penicillin and […] streptomycin (both AppliChem, Darmstadt, Germany) to avoid bacterial contaminations, with no further antibiotics being added during the subsequent recultivation. Before each experiment, the cells were washed by centrifugation at 100 g for five minutes and subsequent resuspension in RPMI 1640 medium with 2 mM glutamine and 10% FCS in each case two times and adjusted to a concentration of 1·10^5 cells per ml. Finally, in each case 100 μl of the U937 cells were transferred to the reaction chambers of a sterile 96-well polypropylene microtiter plate and admixed with in each case 100 μl of a prediluted antimicrobial peptide in RPMI 1640 medium without antibiotic addition, such that end concentrations of in each case 5·10^4 cells per ml at peptide concentrations between 0.25 μM and 64 μM were present. The negative control used was samples without antimicrobial peptide, while Triton X-100 (AppliChem) was used in an end concentration of 5% as positive control for the permeabilization. The samples were cultivated for two hours at 37° C. and with continuous gassing with 5% CO2 in a climatically controlled chamber. Then, in each case 100 μl of each sample were removed and transferred to new sterile microtiter plates for determining the direct membrane damage. The remaining 100 μl of the samples were cultivated for at least four further days.
For this purpose, 10 μl of lysing solution were added to in each case 100 μl of cell suspension and incubated for 60 minutes at 37° C. Then, the cell culture supernatants were investigated as described above. The lowest peptide concentration at which complete suppression of the cell growth was established after four days was stipulated as the minimum toxic concentration (MTC).

Data set [4] has the same test system. Kind of data set: Cytotoxicity, direct membrane damage (CytoTox 96), LD50. It is filed as cell-based. Particulars: U937, two hours at 37° C., 0.25-64 μM. On the procedure: The direct membrane damage was investigated with the help of the CytoTox 96 Non-Radioactive Cytotoxicity Assay (Promega, Mannheim, Germany). For this purpose, the cells were sedimented at 100 g for ten minutes at 4° C., and 50 μl of the resulting culture supernatant were added to 50 μl of the CytoTox substrate mix. After an incubation time of 30 minutes in the dark at room temperature, 50 μl of the CytoTox stopping solution were added to the sample and the absorption was measured at 490 nm. To determine the LD50 value, the measurement value of the negative control was deducted from the absorption values and divided by the measurement value of the permeabilization control. The calculated values were plotted graphically against the peptide concentration and fitted using the Origin pro 8.1 G Software according to a sigmoidal model and the LD50 values were ascertained from this. The calculation was carried out analogously to example 5 by reference to the solution of equation 5.1 for the case y=50, where y in this case corresponds to the relative cytotoxicity in percent and x corresponds to the peptide concentration in μM. Representative graphical evaluations of LD50 values are shown in FIG. 6 by reference to the measurement results for the reference peptides BMAP-27, protamine and KL-helix, and also the peptide O1 according to the invention.

For the next data set, the system named is E. coli DH5α. Particulars: DH5α, 18 h. The method, then:
(§4) The minimum inhibitory concentration (MIC) of the peptides was carried out by way of example against gram(−) E. coli DH5α (and gram(+) Staphylococcus xylosus (both Deutsche Sammlung von Mikroorganismen and Zellkulturen, DSMZ) in a standardized microdilution method according to the general guidelines of the CLSI (Clinical and Laboratory Standards Institute 2006) and EUCAST (European Committee for Antimicrobial Susceptibility Testing of the European Society of Clinical Microbiology and Infectious Diseases 2003) with slight adaptations to the investigation of cationic antimicrobial peptides (Wiegand et al. 2008). The bacteria cells were cultivated in Mueller-Hinton-Boullion (MHB) to an optical density of 0.4 to 0.6 at 600 nm wavelength, corresponding to about 4·10^8 bacteria per ml. Then, the bacteria cultures were diluted to a bacteria concentration of about 1·10^5 bacteria per ml in sterile MHB. Using the peptides, series of 2-fold dilutions starting at 128 μM to the smallest dilution of 0.5 μM in MHB were prepared. The peptide dilutions were mixed with the dilute bacteria cultures in a […] in the chambers of a 96-well polypropylene microtiter plate (Starlab, Hamburg, Germany), so that the peptides were present in an end concentration between 64 μM and 0.25 μM at a bacteria concentration of 5·10^4 bacteria/ml. Sterile MHB served as negative control, and the positive control used as the corresponding bacteria concentration in MHB without the addition of peptide. The microtiter plates were incubated for 18 hours at 37° C. with shaking at 120 rpm in a climatically controlled chamber. After the incubation, the bacteria concentration was determined by renewed absorption measurement at a wavelength of 600 nm.

Another data set relates to Staphylococcus xylosus. Particulars: 18 h. The method, then: as §4

Like-named read-outs stand apart in the source and are kept apart here. No end group written: not given here.

On to “GRFKRFRKKFKKLFKKLSPVIPLLHLG-OH [BMAP-27]”, for which the “Inner membrane, time to 50% of final signal” value was 16 min with E. coli ML-35p [1] (4 μM peptide), 9 min with E. coli ML-35p [1] (8 μM peptide), 7 min in the data set with E. coli ML-35p [1] (16 μM peptide) and 5 min in the data set with E. coli ML-35p [1] (32 μM peptide). For the same substance, the “Outer membrane, time to 50% of final signal” value in the data set with E. coli ML-35p [2] (4 μM peptide), with E. coli ML-35p [2] (8 μM peptide), with E. coli ML-35p [2] (16 μM peptide) and in the data set on E. coli ML-35p [2] (32 μM peptide) was less than 1 min in each case. Further, in data set [3] (U937, complete suppression of cell growth after four days), the “Toxicity MTC (minimum toxic concentration)” value came to 4.0 µM.
As for RRRVVVVVRRR [S5], in data set [4], the “Toxicity LD50” value was more than 64 µM. In addition, the “MIC E. coli” value in the data set with E. coli DH5α was determined as 32 µM. Moreover, the “MIC S. xylosus” value in the data set on Staphylococcus xylosus turned out to be 2 µM. Besides, the “Toxicity MTC (minimum toxic concentration)” value in data set [3] is more than 64 µM.
